Assay results from US7851606B2, “Negatively charged minor groove binders” (Elitech Holding B.V., priority 2002, dated 2010).
{CDPI3-SO3} = negatively charged sulfonated CDPI3 minor groove binder; {CDPI4-(SO3)2} = disulfonated CDPI4 minor groove binder; {CDPI3(C)} = code of the source, not defined here; {CDPI3(N)} = code of the source, not defined here

Legend:
[1] = test system: complementary targets that contain A/C mismatch at positions 5, 6, 7 and 8; experiment: Mismatch discrimination of oligonucleotide conjugates 5′-CCAAAATTAC-X^11-3′ hybridized to complementary targets (Example 4); type: binding; conditions: for ΔΔG° between match and mismatch: calculated at 50° C.
Description: This example illustrates conjugates of the present invention to perform mismatch discrimination.
Oligonucleotide conjugates 5′-CCAAAATTAC-X^11-3′ (SEQ ID NO:1), where X ^11 is a minor groove binder of FIG. 1, were hybridized to different complementary targets that contain A/C mismatch at positions 5, 6, 7 and 8, relative to the attached minor groove binder.
The relative free energy difference (ΔΔG°) between match and mismatch at positions 5, 6, 7 and 8 were calculated at 50° C. and are listed in Table below. The ΔΔG° values were calculated as described in U.S. application Ser. No. 09/796,988.
Table of ΔΔG° between match and mismatch calculated at 50° C. for different conjugates.

[2] = test system: matched complement of ODN # 1; experiment: Thermodynamic properties / mismatch discrimination of 3′-conjugated GGTTTTAATG-X″ sequences (Example 5, FIG. 2); type: binding; conditions: C/A mismatch at positions 5, 6, 7 and 8; 50° C.; PCR buffer; oligonucleotide 5×10^−7M; in words
Description: Thermodynamic properties of 3′ -conjugated, where X″ represents the attached minor groove binder which is either CDPI3 (C), CDPI3 (N) and CDPI4-(SO3^−)2. The parameters were determined at PCR buffer, where the oligonucleotide concentration was 5×10^−7M. The sequences below were hybridized to matched complement of ODN # 1. The relative free energy difference (ΔΔG°) between match and mismatch at positions 5, 6, 7 and 8 were calculated at 50° C. and plotted in FIG. 2. The bold C base in the sequences indicates the position of the C/A mismatch.

Substance | ΔΔG° between match and mismatch ([1]; A/C mismatch position 5) [cal/mol] | ΔΔG° between match and mismatch ([1]; A/C mismatch position 6) [cal/mol] | ΔΔG° between match and mismatch ([1]; A/C mismatch position 7) [cal/mol] | ΔΔG° between match and mismatch ([1]; A/C mismatch position 8) [cal/mol] | mismatch discrimination (ΔΔG° plotted in FIG. 2) [2] | mismatch discrimination performance versus the other conjugates in the Table ([1]; in words)
CDPI3 (N): Oligonucleotide conjugate 5′-CCAAAATTAC-X^11-3′, X^11 being the minor groove binder CDPI3 (N) of FIG. 1 (3' {CDPI3(N)}, sugars by position and backbone not given here) | 5280 | 6320 | 5550 | 5510 |  | 
CDPI4-(SO3^−)2: 3′-conjugated oligonucleotide GGTTTTAATG-X″, X″ being the attached minor groove binder CDPI4-(SO3^−)2 (3' {CDPI4-(SO3)2}, sugars by position and backbone not given here) |  |  |  |  | comparable mismatch discrimination | 
CDPI3—SO3^−: Oligonucleotide conjugate 5′-CCAAAATTAC-X^11-3′, X^11 being the negatively charged minor groove binder CDPI3-SO3^− of FIG. 1 (3' {CDPI3-SO3}, sugars by position and backbone not given here) | 4260 | 5160 | 5550 | 4320 |  | comparable to the other conjugates
CDPI3 (C): Oligonucleotide conjugate 5′-CCAAAATTAC-X^11-3′, X^11 being the minor groove binder CDPI3 (C) of FIG. 1 (3' {CDPI3(C)}, sugars by position and backbone not given here) | 4870 | 6220 | 6240 | 5520 |  | 
